Source: BigSolDB 2.1

Question: What does the source list for `O=C1CCCCCN1`?
Answer: solubility (mole fraction) (in acetonitrile, 278.85 K): 0.149; solubility (mole fraction) (in acetonitrile, 283.65 K): 0.187; solubility (mole fraction) (in acetonitrile, 288.25 K): 0.236; solubility (mole fraction) (in acetonitrile, 293.55 K): 0.294; solubility (mole fraction) (in acetonitrile, 298.45 K): 0.359; solubility (mole fraction) (in acetonitrile, 303.65 K): 0.427; solubility (mole fraction) (in acetonitrile, 308.15 K): 0.486; solubility (mole fraction) (in acetonitrile, 313.15 K): 0.558; solubility (mole fraction) (in acetonitrile, 318.65 K): 0.637; solubility (mole fraction) (in acetonitrile, 323.15 K): 0.725; solubility (mole fraction) (in benzene, 279.25 K): 0.2; solubility (mole fraction) (in benzene, 284.15 K): 0.232; solubility (mole fraction) (in benzene, 288.55 K): 0.27; solubility (mole fraction) (in benzene, 293.15 K): 0.31; solubility (mole fraction) (in benzene, 297.85 K): 0.361; solubility (mole fraction) (in benzene, 303.05 K): 0.423; solubility (mole fraction) (in benzene, 307.25 K): 0.482; solubility (mole fraction) (in benzene, 313.25 K): 0.566; solubility (mole fraction) (in benzene, 317.45 K): 0.631; solubility (mole fraction) (in benzene, 321.75 K): 0.701; solubility (mole fraction) (in cyclohexane, 283.65 K): 0.0042; solubility (mole fraction) (in cyclohexane, 288.25 K): 0.00616; solubility (mole fraction) (in cyclohexane, 292.85 K): 0.00897; solubility (mole fraction) (in cyclohexane, 297.95 K): 0.0144; solubility (mole fraction) (in cyclohexane, 302.95 K): 0.0244; solubility (mole fraction) (in cyclohexane, 307.25 K): 0.0373; solubility (mole fraction) (in cyclohexane, 312.55 K): 0.0617; solubility (mole fraction) (in cyclohexane, 318.35 K): 0.108; solubility (mole fraction) (in cyclohexane, 322.65 K): 0.163; solubility (mole fraction) (in ethyl acetate, 278.85 K): 0.103; solubility (mole fraction) (in ethyl acetate, 283.65 K): 0.127; solubility (mole fraction) (in ethyl acetate, 288.35 K): 0.156; solubility (mole fraction) (in ethyl acetate, 292.95 K): 0.192; solubility (mole fraction) (in ethyl acetate, 298.05 K): 0.243; solubility (mole fraction) (in ethyl acetate, 302.85 K): 0.304; solubility (mole fraction) (in ethyl acetate, 307.15 K): 0.364; solubility (mole fraction) (in ethyl acetate, 312.35 K): 0.459; solubility (mole fraction) (in ethyl acetate, 317.15 K): 0.557; solubility (mole fraction) (in ethyl acetate, 321.55 K): 0.654
